Bounds are passed on as bounds.

The term EC50 denotes the midpoint of the concentration-response curve.

The test concerns the target T1, APJ Receptor (Homo sapiens, UniProt P35414).
T1 sequence (P35414 1-380): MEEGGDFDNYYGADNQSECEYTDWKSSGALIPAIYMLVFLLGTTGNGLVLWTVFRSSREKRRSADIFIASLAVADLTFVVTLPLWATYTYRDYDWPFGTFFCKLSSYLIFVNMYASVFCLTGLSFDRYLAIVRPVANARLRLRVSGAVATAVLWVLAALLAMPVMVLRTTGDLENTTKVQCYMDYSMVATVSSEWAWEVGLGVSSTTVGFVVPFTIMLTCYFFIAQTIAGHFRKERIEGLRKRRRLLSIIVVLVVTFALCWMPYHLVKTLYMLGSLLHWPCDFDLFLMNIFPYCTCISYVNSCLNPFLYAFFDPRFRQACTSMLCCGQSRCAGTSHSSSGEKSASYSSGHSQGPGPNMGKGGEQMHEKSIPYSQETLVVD
The test can be described thus: APJ cAMP assay (DiscoverX enzyme fragment complementation; inhibition of forskolin-stimulated cAMP). The test is classed as cell-based. The following applies: CHO-K1 cell line stably expressing the APJ Receptor; EC80 forskolin; 30 minutes at 37° C.; read-out: Potency Range (APJ cAMP EC50). The method, boiled down: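 CHO-K1 cells stably expressing APJ incubated with compound plus EC80 forskolin for 30 min at 37° C. cAMP detected by β-galactosidase enzyme fragment complementation with chemiluminescent read-out; % activity calculated relative to vehicle and maximal controls.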
Background: Cyclic AMP is a second messenger, typically raised through Gs and lowered through Gi signalling.
Take `CCOc1cccc(-c2nc3nc(Cl)c(NS(=O)(=O)Cc4ncccn4)nc3n2-c2c(OC)cccc2OC)n1` [Example 109, N-(5-Chloro-1-(2,6-dimethoxyphenyl)-2-(6-ethoxypyridin-2-yl)-1H-imidazo[4,5-b]pyrazin-6-yl)-1-(pyrimidin-2-yl)methanesulfonamide]: the EC50 was in the range of 1 to 100 nM.

In the case of `CC#CCS(=O)(=O)Nc1nc2c(nc1Cl)nc(-c1cccc(OCC)n1)n2-c1c(OC)cccc1OC` [Example 110, N-(5-Chloro-1-(2,6-dimethoxyphenyl)-2-(6-ethoxypyridin-2-yl)-1H-imidazo[4,5-b]pyrazin-6-yl)but-2-yne-1-sulfonamide], the EC50 is less than 1 nM.

Regarding `CCOc1cccc(-c2nc3nc(Cl)c(NS(=O)(=O)C4CCOCC4)nc3n2-c2c(OC)cccc2OC)n1` [Example 111, N-(5-Chloro-1-(2,6-dimethoxyphenyl)-2-(6-ethoxypyridin-2-yl)-1H-imidazo[4,5-b]pyrazin-6-yl)tetrahydro-2H-pyran-4-sulfonamide], the concentration giving a half-maximal response (EC50) fell in the range of 1 to 100 nM.

On to `CCOc1cccc(-c2nc3nc(Cl)c(NS(=O)(=O)N(C)C4CC4)nc3n2-c2c(OC)cccc2OC)n1` [Example 112, N-(5-Chloro-1-(2,6-dimethoxyphenyl)-2-(6-ethoxypyridin-2-yl)-1H-imidazo[4,5-b]pyrazin-6-yl)-N′-methyl-N′-cyclopropylsulfamide], for which the EC50 is less than 1 nM.

With `CCOc1cccc(-c2nc3nc(Cl)c(NS(=O)(=O)CC4(O)CC4)nc3n2-c2c(OC)cccc2OC)n1` [Example 113, N-(5-Chloro-1-(2,6-dimethoxyphenyl)-2-(6-ethoxypyridin-2-yl)-1H-imidazo[4,5-b]pyrazin-6-yl)-1-(1-hydroxycyclopropyl)methanesulfonamide], the EC50 was 1 to 100 nM.

Consider `CCOc1cccc(-c2nc3nc(Cl)c(NS(=O)(=O)Cc4ccc(C)cn4)nc3n2-c2c(OC)cccc2OC)n1` [Example 114, N-(5-Chloro-1-(2,6-dimethoxyphenyl)-2-(6-ethoxypyridin-2-yl)-1H-imidazo[4,5-b]pyrazin-6-yl)-1-(5-methylpyridin-2-yl)methanesulfonamide], for which the EC50 lay in the range of 1 to 100 nM.

As to `CCOc1cccc(-c2nc3nc(Cl)c(NS(=O)(=O)C[C@H]4C[C@](C)(O)C4)nc3n2-c2c(OC)cccc2OC)n1` [Example 115, N-(5-Chloro-1-(2,6-dimethoxyphenyl)-2-(6-ethoxypyridin-2-yl)-1H-imidazo[4,5-b]pyrazin-6-yl)-1-((1r,3r)-3-hydroxymethylcyclobutyl) methanesulfonamide], the EC50 was less than 1 nM.

For the compound `CCOc1cccc(-c2nc3nc(Cl)c(NS(=O)(=O)N4CCC(O)CC4)nc3n2-c2c(OC)cccc2OC)n1` [Example 116, N-(5-Chloro-1-(2,6-dimethoxyphenyl)-2-(6-ethoxypyridin-2-yl)-1H-imidazo[4,5-b]pyrazin-6-yl)-4-hydroxypiperidine-1-sulfonamide], the EC50 was in the range of 1 to 100 nM.

As for `CCOc1cccc(-c2nc3nc(Cl)c(NS(C)(=O)=O)nc3n2-c2c(OC)cncc2OC)n1` [Example 117, N-(5-Chloro-1-(3,5-dimethoxypyridin-4-yl)-2-(6-ethoxypyridin-2-yl)-1H-imidazo[4,5-b]pyrazin-6-yl)methanesulfonamide], the EC50 lay in the range of 1 to 100 nM.

In the case of `CCOc1cccc(-c2nc3nc(Cl)c(NS(=O)(=O)C4CC4)nc3n2-c2c(OC)cncc2OC)n1` [Example 118, N-(5-Chloro-1-(3,5-dimethoxypyridin-4-yl)-2-(6-ethoxypyridin-2-yl)-1H-imidazo[4,5-b]pyrazin-6)cyclopropanesulfonamide], the concentration giving a half-maximal response (EC50) fell in the range of 1 to 100 nM.

As for `CCOc1cccc(-c2nc3nnc(NS(=O)(=O)C4CC4)cc3n2-c2c(OC)cccc2OC)n1` [Example 119, N-(7-(2,6-Dimethoxyphenyl)-8-(6-ethoxypyridin-2-yl)-7H-imidazo[4,5-c]pyridazinyl)cyclopropanesulfonamide], the EC50 was in the range of 1 to 100 nM.

Take `CCOc1cccc(-c2nc3nnc(NS(=O)(=O)c4ccc(F)cn4)cc3n2-c2c(OC)cccc2OC)n1` [Example 120, N-(7-(2,6-Dimethoxyphenyl)-8-(6-ethoxypyridin-2-yl)-7H-imidazo[4,5-c]pyridazinyl)-5-fluoropyridine-2-sulfonamide]: the EC50 is less than 1 nM.

For `CCOc1cccc(-c2nc3nnc(NS(=O)(=O)N4CCOCC4)cc3n2-c2c(OC)cccc2OC)n1` [Example 121, N-(7-(2,6-Dimethoxyphenyl)-8-(6-ethoxypyridin-2-yl)-7H-imidazo[4,5-c]pyridazinyl)morpholine-4-sulfonamide], the EC50 lay within 1 to 100 nM.

`CCOc1cccc(-c2nc3nnc(NS(=O)(=O)Cc4ccc(F)cc4)cc3n2-c2c(OC)cccc2OC)n1` [Example 122, N-(7-(2,6-Dimethoxyphenyl)-8-(6-ethoxypyridin-2-yl)-7H-imidazo[4,5-c]pyridazinyl)-1-(4-fluorophenyl)methanesulfonamide]: the EC50 is less than 1 nM.

Consider `CCOc1cccc(-c2nc3nnc(NS(=O)(=O)Cc4ccc(Cl)cn4)cc3n2-c2c(OC)cccc2OC)n1` [Example 123, 1-(5-Chloropyridin-2-yl)-N-(7-(2,6-dimethoxyphenyl)-8-(6-ethoxypyridin-2-yl)-7H-imidazo[4,5-c]pyridazinyl)methanesulfonamide], for which the EC50 was less than 1 nM.

With `CCOc1cccc(-c2nc3nnc(NS(=O)(=O)Cc4ccc(C)cn4)cc3n2-c2c(OC)cccc2OC)n1` [Example 124, N-(7-(2,6-Dimethoxyphenyl)-8-(6-ethoxypyridin-2-yl)-7H-imidazo[4,5-c]pyridazinyl)-1-(5-methylpyridin-2-yl)methanesulfonamide], the EC50 is less than 1 nM.

Regarding `CCOc1cccc(-c2nc3nnc(NS(=O)(=O)Cc4ccc(F)cn4)cc3n2-c2c(OC)cccc2OC)n1` [Example 125, N-(7-(2,6-Dimethoxyphenyl)-8-(6-ethoxypyridin-2-yl)-7H-imidazo[4,5-c]pyridazinyl)-1-(5-fluoropyridin-2-yl)methanesulfonamide], the EC50 is less than 1 nM.

Take `CCOc1cccc(-c2nc3nnc(NS(=O)(=O)Cc4ncc(C)cn4)cc3n2-c2c(OC)cccc2OC)n1` [Example 126, N-(7-(2,6-Dimethoxyphenyl)-8-(6-ethoxypyridin-2-yl)-7H-imidazo[4,5-c]pyridazinyl)-1-(5-methylpyrimidin-2-yl)methanesulfonamide]: the 50% effective concentration (EC50) is less than 1 nM.

As to `CCOc1cccc(-c2nc3nnc(NS(=O)(=O)Cc4ncccn4)cc3n2-c2c(OC)cccc2OC)n1` [Example 127, N-(5-(2,6-Dimethoxyphenyl)-6-(6-ethoxypyridin-2-yl)-5H-imidazo[4,5-c]pyridazin-3-yl)-1-(pyrimidin-2-yl)methanesulfonamide], the EC50 was less than 1 nM.

Take `CCOc1cccc(-c2nc3nnc(NS(=O)(=O)CC4CC(C)(O)C4)cc3n2-c2c(OC)cccc2OC)n1` (stereo not shown) [Example 128, N-(5-(2,6-Dimethoxyphenyl)-6-(6-ethoxypyridin-2-yl)-5H-imidazo[4,5-c]pyridazin-3-yl)-1-(3-hydroxy-3-methylcyclobutyl)methanesulfonamide]: the EC50 was less than 1 nM.

On to `CCOc1cccc(-c2nc3nnc(NS(=O)(=O)Cc4ncc(O)cn4)cc3n2-c2c(OC)cccc2OC)n1` [Example 129, N-(7-(2,6-Dimethoxyphenyl)-8-(6-ethoxypyridin-2-yl)-7H-imidazo[4,5-c]pyridazinyl)-1-(5-hydroxypyrimidin-2-yl)methanesulfonamide], for which the 50% effective concentration (EC50) was 1 to 100 nM.

As to `COc1cccc(OC)c1-n1c(-c2ccc(C)o2)nc2nnc(NS(C)(=O)=O)cc21` [Example 130, N-(7-(2,6-Dimethoxyphenyl)-8-(5-methylfuran-2-yl)-7H-imidazo[4,5-c]pyridazinyl)methanesulfonamide], the EC50 was 100 to 10000 nM.

In the case of `COc1cccc(OC)c1-n1c(-c2ccc(C)o2)nc2ncc(NS(C)(=O)=O)nc21` [Example 131, N-(1-(2,6-dimethoxyphenyl)-2-(5-methylfuran-2-yl)-1H-imidazo[4,5-b]pyrazin-6-yl)methanesulfonamide], the EC50 lay within 1 to 100 nM.

For `COc1cccc(OC)c1-n1c(-c2cncc(C)c2)nc2ncc(NS(C)(=O)=O)nc21` [Example 132, N-(1-(2,6-dimethoxyphenyl)-2-(5-methylpyridin-3-yl)-1H-imidazo[4,5-b]pyrazin-6-yl)methanesulfonamide], the EC50 was in the range of 100 to 10000 nM.

Regarding `COc1cccc(OC)c1-n1c(-c2cncc(C)c2)nc2ncc(NS(=O)(=O)C3CC3)nc21` [Example 133, N-(1-(2,6-dimethoxyphenyl)-2-(5-methylpyridin-3-yl)-1H-imidazo[4,5-b]pyrazin-6-yl)cyclopropanesulfonamide], the EC50 lay within 100 to 10000 nM.

On to `CCCOc1nc2ncc(NS(=O)(=O)c3ccccc3)nc2n1-c1c(OC)cccc1OC` [Example 134, N-(1-(2,6-Dimethoxyphenyl)-2-propoxy-1H-imidazo[4,5-b]pyrazin-6-yl) benzenesulfonamide], for which the EC50 lay in the range of 100 to 10000 nM.

As for `CCOc1cccc(-c2nc3nc(O)c(NS(C)(=O)=O)nc3n2-c2c(OC)cccc2OC)n1` [Example 135, N-(1-(2,6-Dimethoxyphenyl)-2-(6-ethoxypyridin-2-yl)-5-hydroxy-1H-imidazo[4,5-b]pyrazin-6-yl)methanesulfonamide], the EC50 lay in the range of 1 to 100 nM.

Turning to `CCOc1cccc(-c2nc3nc(N4CC(O)C4)c(NS(C)(=O)=O)nc3n2-c2c(OC)cccc2OC)n1` [Example 136, N-(1-(2,6-Dimethoxyphenyl)-2-(6-ethoxypyridin-2-yl)-5-(3-hydroxyazetidin-1-yl)-1H-imidazo[4,5-b]pyrazin-6-yl)methanesulfonamide], the EC50 fell in the range of 100 to 10000 nM.

The values are drawn from US11944622B2 (Annapurna Bio, Inc., priority 2018, dated 2024).
